Values of other authors as cited in paper PMC5263201, “GABAA receptor occupancy by subtype selective GABAAα2,3 modulators: PET studies in humans” (Psychopharmacology, 2016).
Like-named read-outs stand apart in the source and are kept apart here.

What was measured:
[1] = target: human recombinant GABAA receptors containing β3, γ2 plus α3; design: method as in Atack et al 2010a; details: L(tk-) cells, human recombinant β3γ2 plus α3; mean (SEM); ref Atack et al 2010a; read-out: Affinity in vitro at BZ binding site (Ki) α3; cited from earlier work
[2] = target: human recombinant GABAA receptors containing β3, γ2 plus α2; design: method as in Atack et al 2010a; details: L(tk-) cells, human recombinant β3γ2 plus α2; mean (SEM); ref Atack et al 2010a; read-out: Affinity in vitro at BZ binding site (Ki) α2; cited from earlier work
[3] = test system: human recombinant GABAA receptors containing β3γ2 plus α5; design: method as in Atack et al 2010; details: maximum potentiation of GABA EC20 currents relative to chlordiazepoxide; ref Atack et al 2010; cited from earlier work
[4] = test system: human recombinant GABAA receptors containing β3γ2 plus α3; design: method as in Atack et al 2010; details: maximum potentiation of GABA EC20 currents relative to chlordiazepoxide; ref Atack et al 2010; cited from earlier work
[5] = ref Atack et al 2010a; cited from earlier work
GABAA receptor [6] = details: cited from earlier work; for Receptor occupancy: ref Atack et al 2010a
[7] = target: human recombinant GABAA receptors containing β3, γ2 plus α5; design: method as in Atack et al 2010a; details: L(tk-) cells, human recombinant β3γ2 plus α5; mean (SEM); ref Atack et al 2010a; read-out: Affinity in vitro at BZ binding site (Ki) α5; cited from earlier work
[8] = test system: human recombinant GABAA receptors containing β3γ2 plus α1; design: method as in Atack et al 2010; details: ref Atack et al 2010, cited from earlier work; for Relative efficacy (%CDP) α1: maximum potentiation of GABA EC20 currents relative to chlordiazepoxide
[9] = target: human recombinant GABAA receptors containing β3, γ2 plus α1; design: method as in Atack et al 2010a; details: L(tk-) cells, human recombinant β3γ2 plus α1; mean (SEM); ref Atack et al 2010a; read-out: Affinity in vitro at BZ binding site (Ki) α1; cited from earlier work
[10] = test system: human recombinant GABAA receptors containing β3γ2 plus α2; design: method as in Atack et al 2010; details: maximum potentiation of GABA EC20 currents relative to chlordiazepoxide; ref Atack et al 2010; cited from earlier work
GABAA α1β2γ2 = test system: GABAA α1β2γ2; design: method as in Christian et al 2015; details: 1µM test concentration, GABA EC10, % of 1 µM diazepam, mean ±SE, ref Christian et al 2015; cited from earlier work
GABAA α2β3γ2 = test system: GABAA α2β3γ2; design: method as in Christian et al 2015; details: 1µM test concentration, GABA EC10, % of 1 µM diazepam, mean ±SE, ref Christian et al 2015; cited from earlier work
GABAA α5β3γ2 = test system: GABAA α5β3γ2; design: method as in Christian et al 2015; details: 1µM test concentration, GABA EC10, % of 1 µM diazepam, mean ±SE, ref Christian et al 2015; cited from earlier work
GABAA α3β3γ2 = test system: GABAA α3β3γ2; design: method as in Christian et al 2015; details: 1µM test concentration, GABA EC10, % of 1 µM diazepam, mean ±SE, ref Christian et al 2015; cited from earlier work
[11] = target: BZ binding site, hippocampus synaptosomal membranes; design: method as in Dubinsky et al 2002; details: (e) rat brain synaptosomal membranes; [3H]Ro15-4513; ref Dubinsky et al 2002; read-out: Affinity in vitro at BZ binding site (Ki), hippocampus; cited from earlier work
[12] = target: GABAA α1, α2, α3, and α5 subunits; design: method as in Sieghart 1995; details: ref Sieghart 1995; read-out: K i for the GABAA α1, α2, α3, and α5 subunits; cited from earlier work
GABAA α4 and α6 subunits = target: GABAA α4 and α6 subunits; design: method as in Sieghart 1995; details: ref Sieghart 1995; read-out: K i for the α4 and α6 subunits; cited from earlier work
GABAA receptor [13] = test system: GABAA receptor; design: method as in Bottlaender et al 1994; details: In NHP; corresponds to 4-500 µg/kg; ref Bottlaender et al 1994; cited from earlier work
GABAA receptor α5 = target: GABAA receptor α5; design: method as in Sieghart 1995; details: (d) review; ref Sieghart 1995; read-out: Affinity in vitro at BZ binding site (Ki) α5; cited from earlier work
[14] = test system: human α1β2γ2 GABAA receptors; design: method as in Sanna et al 2002; details: GABA-evoked Cl- currents, means ±SE, ref Sanna et al 2002; cited from earlier work
GABAA receptor α1 = target: GABAA receptor α1; design: method as in Sieghart 1995; details: (d) review; ref Sieghart 1995; read-out: Affinity in vitro at BZ binding site (Ki) α1; cited from earlier work
GABAA receptor α2 = target: GABAA receptor α2; design: method as in Sieghart 1995; details: (d) review; ref Sieghart 1995; read-out: Affinity in vitro at BZ binding site (Ki) α2; cited from earlier work
[15] = test system: human α2β2γ2 GABAA receptors; design: method as in Sanna et al 2002; details: GABA-evoked Cl- currents, means ±SE, ref Sanna et al 2002; cited from earlier work
GABAA receptor α3 = target: GABAA receptor α3; design: method as in Sieghart 1995; details: (d) review; ref Sieghart 1995; read-out: Affinity in vitro at BZ binding site (Ki) α3; cited from earlier work
[16] = test system: human α3β2γ2 GABAA receptors; design: method as in Sanna et al 2002; details: GABA-evoked Cl- currents, means ±SE, ref Sanna et al 2002; cited from earlier work
[17] = test system: human α5β2γ2 GABAA receptors; design: method as in Sanna et al 2002; details: GABA-evoked Cl- currents, means ±SE, ref Sanna et al 2002; cited from earlier work
[18] = target: human recombinant GABAA receptors containing β3, γ2 plus α2; design: method as in Atack et al 1999; details: (c) human recombinant β3γ2 plus α2; [3H]Ro 15-1788; ref Atack et al 1999; read-out: Affinity in vitro at BZ binding site (Ki) α2; cited from earlier work
[19] = target: human recombinant GABAA receptors containing β3, γ2 plus α3; design: method as in Atack et al 1999; details: (c) human recombinant β3γ2 plus α3; [3H]Ro 15-1788; ref Atack et al 1999; read-out: Affinity in vitro at BZ binding site (Ki) α3; cited from earlier work
[20] = target: human recombinant GABAA receptors containing β3, γ2 plus α5; design: method as in Atack et al 1999; details: (c) human recombinant β3γ2 plus α5; [3H]Ro 15-1788; ref Atack et al 1999; read-out: Affinity in vitro at BZ binding site (Ki) α5; cited from earlier work
[21] = target: human recombinant GABAA receptors containing β3, γ2 plus α1; design: method as in Atack et al 1999; details: (c) human recombinant β3γ2 plus α1; [3H]Ro 15-1788; ref Atack et al 1999; read-out: Affinity in vitro at BZ binding site (Ki) α1; cited from earlier work

CC(C)(O)c1cnn2c(-c3ccc(F)c(-c4c(F)cccc4C#N)c3)cnc2n1 [TPA-023B]
Ki [1]: 1.8 ± 0.4 nM
Ki [2]: 2 ± 0.4 nM
Relative efficacy (%CDP) α5 [3]: 37±4%
Relative efficacy (%CDP) α3 [4]: 50±2%
maximum tolerated dose (MTD) [5]: 2 mg
Receptor occupancy (GABAA receptor [6]; at 1.5 mg): 53%
Ki [7]: 1.1 ± 0.2 nM
Relative efficacy (%CDP) α1 [8]: 3±1%
Ki [9]: 0.73 ± 0.21 nM
Relative efficacy (%CDP) α2 [10]: 38±4%

CCn1ncnc1COc1nn2c(-c3ccccc3F)nnc2cc1C(C)(C)C [TPA-023, 7-(1,1-dimethylethyl)-6-(2-ethyl-2H-1,2,4-triazol-3-ylmethoxy)-3-(2-fluorophenyl)-1,2,4-triazolo[4,3-b]pyridazine]
Ki [1]: 0.19 nM
Ki [2]: 0.31 nM
Relative efficacy (%CDP) α5 [3]: 5%
Relative efficacy (%CDP) α3 [4]: 21%
maximum tolerated dose (MTD) [5]: 2 mg
Relative efficacy (%DZ) α1 (GABAA α1β2γ2): 5±3%
Relative efficacy (%DZ) α2 (GABAA α2β3γ2): 15±2%
Receptor occupancy (GABAA receptor [6]; at 2mg, MTD): 35-65%
receptor occupancy with lack of overt sedation (GABAA receptor [6]; ref Atack et al. 2010, 2011a,b): up to 50%
Ki [7]: 0.41 nM
Relative efficacy (%DZ) α5 (GABAA α5β3γ2): 6±4%
Relative efficacy (%DZ) α3 (GABAA α3β3γ2): 17±1%
Relative efficacy (%CDP) α1 [8]: 0%
comment on intrinsic activity at α1 [8]: Christian et al 2015 Atack et al 2010 /antagonist at α1
Ki [9]: 0.27 nM
Relative efficacy (%CDP) α2 [10]: 11%

Cc1nnc2n1-c1ccc(Cl)cc1C(c1ccccc1)=NC2 [Alprazolam]
Ki [11]: 5 nM
Receptor occupancy (RO) (GABAA receptor [6]; 2mg/day, sedation, ref Fujita et al 1999): RO:16% (2mg/day, sedation) /Fujita et al 1999 Affinity: Dubinsky et al 2002

CCOC(=O)c1ncn2c1CN(C)C(=O)c1cc(F)ccc1-2 [Flumazenil]
Ki [12]: ~1 nM
Ki (GABAA α4 and α6 subunits): ~150 nM

MRK-409
Ki [1]: 0.21 ± 0.03 nM
Ki [2]: 0.4 ± 0.07 nM
Relative efficacy (%CDP) α5 [3]: 18%
Relative efficacy (%CDP) α3 [4]: 45%
maximum tolerated dose (MTD) [5]: 1 mg
Receptor occupancy (GABAA receptor [6]; at 1mg, MTD): < 10%
receptor occupancy at severe sedation (GABAA receptor [6]; ref Atack et al. 2010, 2011a,b): < 10%
Ki [7]: 0.23 ± 0.04 nM
Relative efficacy (%CDP) α1 [8]: 18%
comment on intrinsic activity at α1 [8]: Atack et al 2010/weak partial agonist at α1
Ki [9]: 0.22 ± 0.02 nM
Relative efficacy (%CDP) α2 [10]: 23%

O=C1Nc2ccc(Cl)cc2C(c2ccccc2Cl)=NC1O (centres unmarked) [Lorazepam]
Ki [11]: 8.6 nM
Receptor occupancy (RO) (GABAA receptor [6]; 2 mg, ref Lindfors-Hughes et al 2005, Atack et al 2010b): RO: ≤10% (2 mg) / Lindfors-Hughes et al 2005, Atack et al 2010b Affinity: Dubinsky et al 2002

Cc1nnc2n1-c1ccc(Cl)cc1C(c1ccccc1Cl)=NC2 [Triazolam]
Receptor occupancy (RO) (GABAA receptor [13]): In NHP: 5-100% RO corresponds to 4-500 µg/kg/ Bottlaender et al 1994 Affinity: Sieghart 1995
Ki (GABAA receptor α5): 1.2 ± 0.3 nM
Relative efficacy (%) α1, maximal percentage potentiation [14]: 132±6%
Ki (GABAA receptor α1): 1.8 ± 0.4 nM
Ki (GABAA receptor α2): 1.2 ± 0.2 nM
Relative efficacy (%) α2, maximal percentage potentiation [15]: 255±11%
Ki (GABAA receptor α3): 3 ± 0.7 nM
Relative efficacy (%) α3, maximal percentage potentiation [16]: 270±13%
Relative efficacy (%) α5, maximal percentage potentiation [17]: 165±8%

CN1C(=O)CN=C(c2ccccc2)c2cc(Cl)ccc21 [Diazepam]
Ki (GABAA receptor α5): 14.9 nM
Ki [11]: 12.6 nM
Ki (GABAA receptor α2): 16.9 nM
Receptor occupancy (RO) (GABAA receptor [6]; at 30mg, sedation, ref Pauli et al 1992): RO:24%, at 30mg, sedation/ Pauli et al 1992 Affinity: c) Atack et al 1999, d) Sieghart 1995;
Ki (GABAA receptor α3): 17 nM

Cc1ccc(-c2nc3ccc(C)cn3c2CC(=O)N(C)C)cc1 [Zolpidem]
Relative efficacy (%) α1, maximal percentage potentiation [14]: 100±5%
Ki (GABAA receptor α1): 17 nM
Ki [18]: 160 nM
Ki [19]: 380 nM
Ki [20]: > 10000 nM
Ki (GABAA receptor α2): 291 nM
Receptor occupancy (RO) (GABAA receptor [6]; 20mg, drowsiness, ref Abadie et al 1996): 21%
Receptor occupancy (RO) (GABAA receptor [6]; at 10mg therapeutic dose, ref Abadie et al 1996): 15%
Relative efficacy (%) α2, maximal percentage potentiation [15]: 198±20%
Ki (GABAA receptor α3): 357 nM
Relative efficacy (%) α3, maximal percentage potentiation [16]: 217±34%
Relative efficacy (%) α5, maximal percentage potentiation [17]: 15±5%
Ki [21]: 27 nM
